Source: patent US5789604A, “Isolation, characterization and structures of new antibiotic components produced by fungal culture 07F275” (priority 1993, dated 1998)

Experiments:
Venturia inaequalis = experiment: in vivo evaluation as fungicidal agents, apple scab
Method: (§1) in Vivo Evaluation as Fungicidal Agents (Table 2)
(§2) Compounds are dissolved in acetone, diluted to the desired concentration with water and surfactant and sprayed onto the test plants. After drying, the test plants are treated with fungal inoculum. When disease symptom development is optimal, plants are rated for disease control. Inoculated untreated plants, solvent/surfactant treated plants and plants treated with a reference standard are used for comparison.
AS Apple scab Venturia inaequalis
(§3) Compounds are rated for control of each disease according to the rating scale shown below: […]

Plasmopara viticola = experiment: in vivo evaluation as fungicidal agents, grape downy mildew; settings: for disease control rating GDM: grape downy mildew
Method: as §1, §2, §3

Botrytis cinerea = experiment: in vivo evaluation as fungicidal agents, pepper botrytis
Method: as §1, §2
PB Pepper botrytis Botrytis cinerea
as §3

Pyricularia oryzae = settings: in vivo
Cercospora beticola = experiment: in vivo evaluation as fungicidal agents, sugar beet cercospora
Method: as §1, §2
SBC Sugar beet cercospora
as §3

Alternaria solani = experiment: in vivo evaluation as fungicidal agents, tomato early blight
Method: as §1, §2, §3

[1] = system: Erysiphe graminis f.sp. tritici; experiment: in vivo evaluation as fungicidal agents, wheat powdery mildew
Method: as §1, §2
WPM Wheat powdery mildew
as §3

Leptosphaeria nodurum = experiment: in vivo evaluation as fungicidal agents, wheat septoria nodorum
[2] = system: Fusarium oxysporum Schlechtend: Fr.f.sp. cucumerinim; experiment: in vitro inhibition of mycelial growth, FUSOXC; type: cell-based
Method: (§4) in Vitro Evaluation of the Inhibition of the Mycelial Growth by Target (Table 3)
(§5) Severe soilborne diseases such as damping off, seedling blight, crown rot, and root rot, among others are caused by certain plant pathogenic fungi. An in Vitro assay is conducted to determine whether test compounds will inhibit the mycelial growth of said fungi. Pathogens, the method of testing, and the rating system used are reported below.
(§6) General Procedure for the in Vitro Fungicide Screen Assay fungi included the following plant pathogens: FUSOXC Fusarium oxysporum Schlechtend: Fr.f.sp. cucumerinim J. H. Owen
(§7) The test compound (2.5-10 mg) is dissolved in 0.5 ml acetone, diluted with 4.5 ml sterile deionized water, and mixed with 95 ml of an autoclaved and partially cooled, chemically defined agar medium in a 250 ml flask. Test compounds that are insoluble are prepared as a fine suspension ultrasonically or with a glass tissue grinder, before addition to the medium. The chemically defined medium (CDM) used in these experiments is as follows:
(§8) CDM is sterilized by autoclaving or by filtration through a […]
(§9) The mixture of test compound and agar medium as described above is poured into several 100 mm×15 mm sterile plastic plates and allowed to solidify. The surface of each plate is inoculated with a single disc of mycelium and agar cut with an 8 mm diameter cork borer from actively growing cultures of assay fungi on a chemically defined agar medium. The plates are incubated at room temperature. Growth inhibition is determined when the mycelial growth on unamended control media has reached the edge of the petri plates. The time interval varies depending on the growth rate of the fungus. Each colony diameter is measured and compared with the untreated control and the percent inhibition is calculated as follows: [formula]
(§10) Each test includes a solvent blank consisting of the formulation without a test compound in addition to the untreated control.

[3] = system: Psudocercosporella herpotrichoides; experiment: in vitro inhibition of mycelial growth, PSDCHE; type: cell-based
Method: as §4, §5, §6
(§11) PSDCHE Psudocercosporella herpotrichoides Deighton
as §7, §8, §9, §10

Pythium ultimam = experiment: in vitro inhibition of mycelial growth, PYTHUL; type: cell-based; settings: for activity against Pythium: in vitro
Method: as §4, §5, §6
PYTHUL Pythium ultimam Trow
as §7, §8, §9, §10

[4] = system: Rhizoctonia solani Kuehn AG1 1A; experiment: in vitro inhibition of mycelial growth, RHIZSO; type: cell-based
Method: as §4, §5, §6
(§12) RHIZSO Rhizoctonia solani Kuehn AG1 1A
as §7, §8, §9, §10

other fungi = experiment: in vitro inhibition of mycelial growth, other fungi; type: cell-based
Method: as §4, §5, §6, §11, §12
The test compound (2.5-10 mg) is dissolved in 0.5 ml acetone, diluted with 4.5 ml sterile deionized water, and mixed with 95 ml of an autoclaved and partially cooled, chemically defined agar medium in a 250 ml flask. […]
The mixture of test compound and agar medium as described above is poured into several 100 mm×15 mm sterile plastic plates and allowed to solidify. […] Growth inhibition is determined when the mycelial growth on unamended control media has reached the edge of the petri plates. […] Each colony diameter is measured and compared with the untreated control and the percent inhibition is calculated as follows: [formula]

With `O=C1[C@@H]2O[C@@H]2C2(Oc3cccc4cccc(c34)O2)[C@]23O[C@]12[C@H](O)C=CC3=O` [07F275sigma] the “disease control rating AS” value (Venturia inaequalis; 12.5 ppm) was 0 (0), the “disease control rating AS” value (Venturia inaequalis; 50.0 ppm) was 0 (0) and the “disease control rating AS” value (Venturia inaequalis; 200.0 ppm) was 0 (0). For the same compound, the “disease control rating GDM” value (Plasmopara viticola; 12.5 ppm) was 0 (0), the “disease control rating GDM” value (Plasmopara viticola; 50.0 ppm) was 4 (45-59) and the “disease control rating GDM” value (Plasmopara viticola; 200.0 ppm) was 6 (75-89). The “reduction of disease severity, GDM” value (Plasmopara viticola; greenhouse test, 200 ppm) was “about 85%”, the “disease control, GDM” value (Plasmopara viticola; greenhouse test, dosages lower than 200 ppm) was “Little to no control” and the “disease control rating PB” value (Botrytis cinerea; 12.5 ppm) was 0 (0). For the same compound, the “disease control rating PB” value (Botrytis cinerea; 50.0 ppm) was 0 (0), the “disease control rating PB” value (Botrytis cinerea; 200.0 ppm) was 0 (0) and the “disease control, RB” value (Pyricularia oryzae) was “Little to no control”. For the same compound, the “reduction of disease severity, RB” value (Pyricularia oryzae) was “about 85%”, the “disease control rating SBC” value (Cercospora beticola; 12.5 ppm) was 0 (0) and the “disease control rating SBC” value (Cercospora beticola; 50.0 ppm) was 0 (0). The “disease control rating SBC” value (Cercospora beticola; 200.0 ppm) was 0 (0), the “disease control rating TEB” value (Alternaria solani; 12.5 ppm) was 0 (0) and the “disease control rating TEB” value (Alternaria solani; 50.0 ppm) was 0 (0). The “disease control rating TEB” value (Alternaria solani; 200.0 ppm) was 0 (0), the “disease control rating WPM” value ([1]; 12.5 ppm) was 0 (0) and the “disease control rating WPM” value ([1]; 50.0 ppm) was 0 (0). For the same compound, the “disease control rating WPM” value ([1]; 200.0 ppm) was 0 (0), the “disease control rating WSN” value (Leptosphaeria nodurum; 12.5 ppm) was 0 (0) and the “disease control rating WSN” value (Leptosphaeria nodurum; 50.0 ppm) was 0 (0). For the same compound, the “disease control rating WSN” value (Leptosphaeria nodurum; 200.0 ppm) was 0 (0), the “mycelial inhibition FUSOXC” value ([2]; 1.0 ppm) was 0 and the “mycelial inhibition FUSOXC” value ([2]; 10.0 ppm) was 0. For the same compound, the “mycelial inhibition FUSOXC” value ([2]; 25.0 ppm) was 0, the “mycelial inhibition PSDCHE” value ([3]; 1.0 ppm) was 1 and the “mycelial inhibition PSDCHE” value ([3]; 10.0 ppm) was 1. The “mycelial inhibition PSDCHE” value ([3]; 25.0 ppm) was 1, the “mycelial inhibition PYTHUL” value (Pythium ultimam; 1.0 ppm) was 3 and the “mycelial inhibition PYTHUL” value (Pythium ultimam; 10.0 ppm) was 7. The “activity against Pythium” value (Pythium ultimam; 10 ppm) was “active”, the “mycelial inhibition PYTHUL” value (Pythium ultimam; 25.0 ppm) was 7 and the “activity against Pythium” value (Pythium ultimam; dosages lower than 10 ppm) was “not at lower dosages”. For the same compound, the “mycelial inhibition RHIZSO” value ([4]; 1.0 ppm) was 1, the “mycelial inhibition RHIZSO” value ([4]; 10.0 ppm) was 1 and the “mycelial inhibition RHIZSO” value ([4]; 25.0 ppm) was 1. The “activity against other fungi in vitro” value (other fungi) was “Little or no activity”.
